Type in all cases: in vivo
One test deals with Pharbitis purpurea. Put plainly: Post-emergence herbicidal activity against PHBPU. Particulars: Ipomoea purpurea, 504 h, dosage 320 g/ha, rated about 3 weeks after treatment. The method, boiled down:
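Greenhouse-grown plants sprayed post-emergence at the one-leaf stage, 2 to 3 weeks after sowing, with WP or EC formulations plus 0.5% additive at 600 l/ha water. Activity rated visually after about 3 weeks versus untreated controls (100% = plants dead, 0% = like control).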

The next test concerns Setaria viridis. Put plainly: Post-emergence herbicidal activity against SETVI. The settings on record: Setaria viridis, 504 h, dosage 320 g/ha, rated about 3 weeks after treatment. A digest of the protocol:
(§1)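 Greenhouse weeds in sandy loam were sprayed at the one-leaf stage, 2–3 weeks after sowing, with WP or EC formulations plus 0.5% additive at 600 l/ha water. About 3 weeks later, damage was rated visually against untreated controls, where 100% means plants dead and 0% means like control.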

Test [1] has as its system Avena fatua. Put plainly: Post-emergence herbicidal activity against AVEFA. The settings on record: Avena fatua, 504 h, dosage 320 g/ha, rated about 3 weeks after treatment. The method, boiled down: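 Greenhouse pots of sandy loam; plants sprayed at one-leaf stage, 2 to 3 weeks after sowing, with WP or EC formulations in water plus 0.5% additive at 600 l/ha. Activity rated visually after about 3 weeks against untreated controls (100% = plants dead, 0% = like control).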

The subject of another test is Polygonum convolvulus. Put plainly: Post-emergence herbicidal activity against POLCO. The settings on record: Fallopia convolvulus, 504 h, dosage 320 g/ha, rated about 3 weeks after treatment. A digest of the protocol: as §1
For the next test, the system named is Hordeum murinum. Put plainly: Post-emergence herbicidal activity against HORMU. Particulars: Hordeum murinum, 504 h, dosage 320 g/ha. The method, boiled down: (§2)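 Greenhouse pot plants sprayed post-emergence at one-leaf stage (2-3 weeks after sowing) with WP or EC formulations, 0.5% additive, 600 l/ha water. Visual rating about 3 weeks later versus untreated controls: 100% = plants dead, 0% = like control.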

In another test the test system is Stellaria media. Kind of test: Pre-emergence herbicidal activity against STEME. Particulars: Stellaria media, 504 h, dosage 80 g/ha. The source says:
(§3) 1. Pre-Emergence Herbicidal Action and Crop Plant Compatibility Seeds of monocotyledonous and dicotyledonous weed plants and crop plants are placed in plastic or wood fiber pots and covered with soil. The compounds of the invention, formulated in the form of wettable powders (WP) or as emulsion concentrates (EC), are then applied onto the surface of the covering soil as aqueous suspension or emulsion with addition of 0.5% additive at a water application rate of 600 l/ha (converted). After the treatment, the pots are placed in a greenhouse and kept under good growth conditions for the trial plants. After about 3 weeks, the effect of the preparations is scored visually in comparison with untreated controls as percentages. For example, 100% activity=the plants have died, 0% activity=like control plants. STEME: Stellaria media VERPE: Veronica persica

The test system of the next test is Echinochloa crus-galli. Put plainly: Post-emergence herbicidal activity against ECHCG. Particulars: Echinochloa crus-galli, 504 h, dosage 320 g/ha, rated about 3 weeks after treatment. The method, boiled down: as §2
A further test has as its system Amaranthus retroflexus. Put plainly: Pre-emergence herbicidal activity against AMARE. The settings on record: Amaranthus retroflexus, 504 h, dosage 80 g/ha.
Source text: as §3, with “AMARE: Amaranthus retroflexus AVEFA: Avena fatua” for “STEME: Stellaria media VERPE: Veronica persica”

Test [2] concerns Avena fatua. Put plainly: Pre-emergence herbicidal activity against AVEFA. Particulars: Avena fatua, 504 h, dosage 80 g/ha, read-out: Pre-emergence herbicidal activity against AVEVA in % (AVEFA).
Source text: as §3, with “AMARE: Amaranthus retroflexus AVEFA: Avena fatua” for “STEME: Stellaria media VERPE: Veronica persica”

The structures appear in SMILES notation.

For `CC(C)(C)OC(=O)[C@H]1C[C@@H](NC(=O)C2(C)CC(c3cccc(F)c3)=NO2)CO1` (mixture of isomers) [I-33, tert-butyl cis-4-[[(5RS)-3-(3-fluorophenyl)-5-methyl-4H-isoxazole-5-carbonyl]amino]tetrahydrofuran-2-carboxylate], the pest or weed control at 320 g/ha came to 90% in the test with Pharbitis purpurea; 90% with Setaria viridis; 100% in the test with Avena fatua [1]; 80% in the test on Polygonum convolvulus; 90% with Hordeum murinum; 80% in the test on Echinochloa crus-galli. The pest or weed control at 80 g/ha with Stellaria media is 100%.
Consider `CC(C)OC(=O)[C@H]1C[C@@H](NC(=O)C2(C)CC(c3cccc(F)c3)=NO2)CO1` (mixture of isomers) [I-32, isopropyl cis-4-[[(5RS)-3-(3-fluorophenyl)-5-methyl-4H-isoxazole-5-carbonyl]amino]tetrahydrofuran-2-carboxylate], for which the pest or weed control at 80 g/ha in the test with Amaranthus retroflexus and with Stellaria media was 90% throughout. In addition, the pest or weed control at 320 g/ha in the test on Pharbitis purpurea stood at 90%; with Setaria viridis, 90%; in the test on Avena fatua [1] it was 100%; in the test on Polygonum convolvulus, 80%; in the test with Hordeum murinum, 90%; with Echinochloa crus-galli it was 90%.
As to `COC(=O)C1COCC1NC(=O)C1(C)CC(c2cc(F)cc(F)c2)=NO1` (stereo not drawn) [I-19, methyl 4-[[3-(3,5-difluorophenyl)-5-methyl-4H-isoxazole-5-carbonyl]amino]tetrahydrofuran-3-carboxylate], the pest or weed control at 320 g/ha was 80% in the test on Pharbitis purpurea; 80% in the test on Setaria viridis; 100% in the test with Avena fatua [1]; 80% with Polygonum convolvulus; 90% in the test on Echinochloa crus-galli. The pest or weed control at 80 g/ha in the test on Avena fatua [2] and with Stellaria media was 80% each time.
As for `C=C[C@]1(C(=O)N[C@@H]2CO[C@@H](C(=O)OC)C2)CC(c2cc(F)cc(F)c2)=NO1` (mixture of isomers) [I-56, methyl trans-4-[[(5S)-3-(3,5-difluorophenyl)-5-vinyl-4H-isoxazole-5-carbonyl]amino]tetrahydrofuran-2-carboxylate], the pest or weed control at 320 g/ha worked out at 90% in the test with Pharbitis purpurea; 90% in the test with Setaria viridis; 100% in the test on Avena fatua [1]; 90% with Polygonum convolvulus; 90% with Hordeum murinum; 90% with Echinochloa crus-galli.
Consider `C=CC1(C(=O)N[C@H]2CO[C@@H](C(=O)OC)C2)CC(c2cc(Cl)cc(Cl)c2)=NO1` (relative stereo) [I-03, methyl cis-4-[[3-(3,5-dichlorophenyl)-5-vinyl-4H-isoxazole-5-carbonyl]amino]tetrahydrofuran-2-carboxylate], for which, in the test with Amaranthus retroflexus, the pest or weed control at 80 g/ha was 80%. The pest or weed control at 320 g/ha with Pharbitis purpurea turned out to be 90%; with Setaria viridis it was 80%; in the test with Avena fatua [1], 80%; in the test on Polygonum convolvulus, 80%; in the test with Echinochloa crus-galli, 80%.
Take `COC(=O)[C@H]1C[C@@H](NC(=O)C2(C)CC(c3cc(F)cc(F)c3)=NO2)CO1` (relative stereo) [I-01, methyl cis-4-[[3-(3,5-difluorophenyl)-5-methyl-4H-isoxazole-5-carbonyl]amino]tetrahydrofuran-2-carboxylate]: the pest or weed control at 320 g/ha was 90% in the test on Pharbitis purpurea; 90% in the test on Setaria viridis; 100% in the test on Avena fatua [1]; 80% with Polygonum convolvulus; 90% in the test on Echinochloa crus-galli. Moreover, the pest or weed control at 80 g/ha in the test on Avena fatua [2] and with Stellaria media was 90% in each case.
`COC(=O)[C@H]1C[C@@H](NC(=O)[C@@]2(C)CC(c3cc(F)cc(F)c3)=NO2)CO1` (mixture of isomers) [I-09, methyl cis-4-[[(5R)-3-(3,5-difluorophenyl)-5-methyl-4H-isoxazole-5-carbonyl]amino]tetrahydrofuran-2-carboxylate]: the pest or weed control at 80 g/ha was 80% with Amaranthus retroflexus and 90% with Avena fatua [2]. Also, the pest or weed control at 320 g/ha worked out at 90% with Pharbitis purpurea; 80% in the test with Setaria viridis; 90% with Avena fatua [1]; 80% with Polygonum convolvulus; 80% with Echinochloa crus-galli.
For the molecule `C=C[C@]1(C(=O)NC2COCC2C(=O)OC)CC(c2cc(F)cc(F)c2)=NO1` (stereo partly drawn) [I-26, methyl 4-[[(5S)-3-(3,5-difluorophenyl)-5-vinyl-4H-isoxazole-5-carbonyl]amino]tetrahydrofuran-3-carboxylate], the pest or weed control at 80 g/ha with Amaranthus retroflexus came to 100%; in the test with Avena fatua [2], 90%; with Stellaria media it was 100%. Further, the pest or weed control at 320 g/ha came to 80% in the test on Pharbitis purpurea, 80% in the test on Setaria viridis, 90% in the test on Avena fatua [1] and 90% with Echinochloa crus-galli.
Consider `COC(=O)[C@H]1C[C@@H](NC(=O)C2(C(F)(F)F)CC(c3cc(F)cc(F)c3)=NO2)CO1` (relative stereo) [I-06, methyl cis-4-[[3-(3,5-difluorophenyl)-5-(trifluoromethyl)-4H-isoxazole-5-carbonyl]amino]tetrahydrofuran-2-carboxylate], for which the pest or weed control at 320 g/ha was determined as 90% in the test on Pharbitis purpurea; 80% in the test on Setaria viridis; 90% in the test with Avena fatua [1]; 80% with Polygonum convolvulus; 90% in the test with Echinochloa crus-galli. Also, in the test with Avena fatua [2], the pest or weed control at 80 g/ha was 90%.
For the molecule `C=CC1(C(=O)NC2=C(C(=O)OCC)COC2)CC(c2cc(F)cc(F)c2)=NO1` (stereo not drawn) [I-23, ethyl 4-[[3-(3,5-difluorophenyl)-5-vinyl-4H-isoxazole-5-carbonyl]amino]-2,5-dihydrofuran-3-carboxylate], the pest or weed control at 80 g/ha with Amaranthus retroflexus was 80%; with Avena fatua [2], 90%. For the same molecule, the pest or weed control at 320 g/ha in the test with Pharbitis purpurea stood at 90%; in the test on Avena fatua [1] it was 100%; with Polygonum convolvulus it was 90%; in the test on Hordeum murinum, 100%; with Echinochloa crus-galli, 90%.
Take `CC1(C(=O)N[C@H]2CO[C@@H](C(=O)OCc3ccccc3)C2)CC(c2cccc(F)c2)=NO1` (mixture of isomers) [I-34, benzyl cis-4-[[(5RS)-3-(3-fluorophenyl)-5-methyl-4H-isoxazole-5-carbonyl]amino]tetrahydrofuran-2-carboxylate]: the pest or weed control at 320 g/ha came to 90% in the test with Pharbitis purpurea; 90% with Setaria viridis; 100% in the test with Avena fatua [1]; 100% with Hordeum murinum; 90% with Echinochloa crus-galli. For the same molecule, the pest or weed control at 80 g/ha in the test on Avena fatua [2] came out at 80%; in the test with Stellaria media, 90%.
In the case of `C=CC1(C(=O)N[C@H]2CO[C@@H](C(=O)OC)C2)CC(c2cccc(F)c2)=NO1` (relative stereo) [I-07, methyl cis-4-[[3-(3-fluorophenyl)-5-vinyl-4H-isoxazole-5-carbonyl]amino]tetrahydrofuran-2-carboxylate], the pest or weed control at 80 g/ha in the test on Amaranthus retroflexus was 90%. For the same molecule, the pest or weed control at 320 g/ha in the test on Pharbitis purpurea is 90%; with Setaria viridis it was 80%; in the test on Avena fatua [1], 90%; in the test with Polygonum convolvulus, 80%; with Echinochloa crus-galli, 80%.

The record behind these values is patent US11597724B2, “Herbicidally active 3-phenylisoxazoline-5-carboxamides of tetrahydro and dihydrofuran carboxylic acids and esters” (Bayer Aktiengesellschaft, priority 2017, dated 2023).
